Entries after “also recorded” stand apart in the source; their conditions may differ. Read-outs that look alike come from different tables or passages of the source.
Legend:
[1] = system: IL-6-induced STAT3 tyrosine phosphorylation and nuclear translocation; test: High content screen; type: cell-based; settings: for SI (STAT1/STAT3), selectivity index ratio: Table 3; for selectivity against pSTAT1 / activity (STAT3): summary of Table 3
[2] = system: IFNγ-induced activation of the STAT1 pathway; test: HCS of IFNγ-induced STAT1 pathway activation; settings: for inhibition at 50 µM: read-out: inhibition of IFNγ-induced STAT1 activation
[3] = system: four HNSCC cell lines (CAL33, FADU, 686 LN, OSC19); test: Anti-proliferative activity in panel of HNSCC cell lines; type: cell-based
JAK1 = test: Western blot of pJAK1/JAK1; type: cell-based; settings: Western blot analysis
JAK2 = test: Western blot of pJAK2/JAK2; type: cell-based; settings: Western blot analysis
panel of >80 kinases = test: Kinase panel; type: biochemical; settings: data not shown
[4] = read-out: anti-proliferative activity

Cc1cc(C)c2nc(Nc3nc(C)c(C)c(O)n3)nc(C)c2c1 [19b]
SI (STAT1/STAT3), selectivity index ratio [1]: >7
selectivity against pSTAT1 [1]: ≥ 3 fold

Cc1nc(Nc2nc(=O)cc(-c3ccccc3)[nH]2)nc2cc3c(cc12)OCO3 [19q]
SI (STAT1/STAT3), selectivity index ratio [1]: >3

Cc1[nH]c(Nc2nc(C)c3cc4c(cc3n2)OCO4)nc(=O)c1C [19p]
activity (STAT3) [1]: completely abolished activity

CC(C)(C)c1nc2c3ccc(F)cc3c3c(=O)[nH]ccc3c2[nH]1 [compound 6, reference compound]
potency against STAT1 [2]: nanomolar potencies
potency against STAT3 [1]: nanomolar potencies

Cc1cc2nc(Nc3nc(=O)c(C)c(C)[nH]3)nc(C)c2cc1C [19n]
selectivity against pSTAT1 [1]: ≥ 3 fold

CC1=CC(C)(C)N=C(Nc2nc(C)c3cc(C)cc(C)c3n2)N1 [11c]
potency against STAT3 ([1]; summary b20): low-micromolar potency
improvement in STAT3 inhibition ([1]; versus 11a): 20 fold
IC50 [3, 4]: 1 to 50 µM

CCOc1ccc2nc(Nc3nc(=O)cc(C)[nH]3)nc(C)c2c1 [19e]
activity (STAT3) [1]: completely abolished activity

CCOc1ccc2nc(NC3=NC(C)=CC(C)(C)N3)nc(C)c2c1 [11a, 6-ethoxy-4-methylquinazoline-2-amino-dihydro-trimethylpyrimidine]
effects on pJAK1/JAK1 (JAK1): no effects; also recorded: did not show any effects
effects on pJAK2/JAK2 (JAK2): no effects; also recorded: did not show any effects
activity against a panel of >80 kinases (panel of >80 kinases): did not exhibit any significant activity
effect on IFNγ-induced activation of the STAT1 pathway ([2]; at 50 μM): no effect
inhibition at 50 µM [2]: < 50%
IC50 ([3]; read-out: anti-proliferative activities IC50's): 17 to 37 µM

CC1=CC(C)(C)N=C(Nc2nc(C)c3cc(C)ccc3n2)N1 [11b]
inhibition at 50 µM [2]: < 50%
improved potency compared to the original hit 11a ([1]; STAT3, text b9): 4 fold
potency against STAT3 ([1]; summary b20): low-micromolar potency
IC50 [3, 4]: 1 to 50 µM

CCOc1ccc2c(C)nc(NC3=NC(C)=CC(C)(C)N3)nc2c1 [11d]
inhibition at 50 µM [2]: < 50%
